PMC9598282 (Antibiotics, 2022)
Values after ≈ are worked out from the molar mass of the structure shown. Values joined by “and” are separate entries in the source; they are usually repeats but may differ in a detail not shown here. Equal entries are not always repeated. Bridge positions count the residues as written; N and C are the ends. Square brackets hold non-standard residues; d marks the D form. Peptide text beside a SMILES is read from it. * marks the point of attachment. X1 = CC[C@H](C)CCCCC(=O)*; Dab = NCC[C@H](N)C(=O)O

Assays:
P. aeruginosa PAO1 = assay: microbe, parasite or virus in culture; assay type: cell-based, Pseudomonas aeruginosa
How it was run: (§1)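 Antibiotic and guanidinylated polymyxin adjuvant were two-fold serially diluted across perpendicular axes, combined with bacterial suspension and incubated 18 h at 37 °C. Turbidity was read as OD590. FIC index is the sum of each agent's MIC in combination divided by its MIC alone: ≤0.5 synergy, 0.5–4 additivity, >4 antagonism.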

P. aeruginosa PA 108590 = assay: MIC, broth microdilution; assay type: cell-based, Pseudomonas aeruginosa; conditions: β-lactamase harboring isolate
Description: (§2) For the preparation of the bacterial solution, overnight grown culture was diluted in 0.85% saline solution, adjusted to 0.5 McFarland turbidity and further diluted in Mueller–Hinton broth for inoculation to a final concentration of 5 × 10^5 colony forming units/mL (CFU/mL). The agents were serially diluted two-fold in a 96-well plate, and equal volumes of bacterial solution were subsequently added to the designated wells. The well consisting of bacterial solution served as the positive control, while the well containing only media served as the negative control. The plate was then incubated at 37 °C for 18 h. After incubation, an Emax Plus microplate reader (Molecular Devices, Union City, CA, USA) was used to measure the optical density (OD) at a wavelength of 590 nm to confirm the turbidity. The antibacterial activity corresponded to the MIC, which is defined as the lowest concentration of the agent necessary to inhibit visible bacterial growth.

P. aeruginosa PA 86052 = assay: MIC, broth microdilution; assay type: cell-based, Pseudomonas aeruginosa; conditions: β-lactamase harboring isolate
Description: as §2

P. aeruginosa PA 88949 = assay: MIC, broth microdilution; assay type: cell-based, Pseudomonas aeruginosa; conditions: β-lactamase harboring isolate
Description: as §2

P. aeruginosa PA 107092 = assay: MIC, broth microdilution; assay type: cell-based, Pseudomonas aeruginosa; conditions: β-lactamase harboring isolate
Description: as §2

P. aeruginosa PA 109084 = assay: MIC, broth microdilution; assay type: cell-based, Pseudomonas aeruginosa; conditions: β-lactamase harboring isolate
Description: as §2

K. pneumoniae 113254 = assay type: cell-based, Klebsiella pneumoniae; conditions: colistin-resistant isolate
Description: as §2

K. pneumoniae 113250 = assay type: cell-based, Klebsiella pneumoniae; conditions: colistin-resistant isolate
Description: as §2

A. baumannii 92247 = assay type: cell-based, Acinetobacter baumannii; conditions: colistin-resistant isolate
Description: as §2

A. baumannii 110193 = assay type: cell-based, Acinetobacter baumannii; conditions: colistin-susceptible MDR isolate
Description: as §2

A. baumannii ATCC 17978 [1] = assay type: cell-based, Acinetobacter baumannii; conditions: wild-type
Description: as §2

A. baumannii AB031 = assay type: cell-based, Acinetobacter baumannii; conditions: colistin-susceptible MDR isolate
Description: as §2

A. baumannii LAC-4 = assay type: cell-based, Acinetobacter baumannii; conditions: colistin-susceptible MDR isolate
Description: as §2

A. baumannii AB027 = assay type: cell-based, Acinetobacter baumannii; conditions: colistin-susceptible MDR isolate
Description: as §2

E. coli ATCC 25922 = assay: microbe, parasite or virus in culture; assay type: cell-based, Escherichia coli
How it was run: as §1

E. cloacae 118564 = assay type: cell-based, Enterobacter cloacae; conditions: colistin-resistant isolate
Description: as §2

E. cloacae 121187 = assay type: cell-based, Enterobacter cloacae; conditions: colistin-resistant isolate
Description: as §2

A. baumannii ATCC 17978 [2] = assay: microbe, parasite or virus in culture; assay type: cell-based, Acinetobacter baumannii
How it was run: as §1

P. aeruginosa 114228 = assay type: cell-based, Pseudomonas aeruginosa; conditions: colistin-resistant isolate
Description: as §2

[3] = test system: P. aeruginosa P264-104354; assay type: cell-based, Pseudomonas aeruginosa; conditions: colistin-susceptible MDR isolate
Description: as §2

[4] = test system: P. aeruginosa P262-101856; assay type: cell-based, Pseudomonas aeruginosa; conditions: colistin-susceptible MDR isolate
Description: as §2

P. aeruginosa 101243 = assay type: cell-based, Pseudomonas aeruginosa; conditions: colistin-resistant isolate
Description: as §2

P. aeruginosa P259-96918 = assay type: cell-based, Pseudomonas aeruginosa; conditions: colistin-susceptible MDR isolate
Description: as §2

E. coli 94393 = assay type: cell-based, Escherichia coli; conditions: colistin-resistant isolate
Description: as §2

E. coli 94474 = assay type: cell-based, Escherichia coli; conditions: colistin-resistant isolate
Description: as §2

E. coli 107115 = assay type: cell-based, Escherichia coli; conditions: colistin-susceptible MDR isolate
Description: as §2

[5] = agent alone, one value per checkerboard plate

SMILES: CC[C@H](C)CCCCC(=O)N[C@@H](CCN)C(=O)N[C@H](C(=O)N[C@@H](CCN)C(=O)N[C@H]1CCNC(=O)[C@H]([C@@H](C)O)NC(=O)[C@H](CCN)NC(=O)[C@H](CCN)NC(=O)[C@H](CC(C)C)NC(=O)[C@@H](CC(C)C)NC(=O)[C@H](CCN)NC1=O)[C@@H](C)O [Colistin, colistin] (X1-[Dab]T[Dab][Dab][Dab][dL]L[Dab][Dab]T; lactam 4-C (inferred); N-terminus assumed)
- Absolute MIC of antibiotic at 4 μg/mL GCol (P. aeruginosa PAO1): 0.5 mg/L
- Absolute MIC of antibiotic at 4 μg/mL GPMB (P. aeruginosa PAO1): 1 mg/L
- MIC alone (P. aeruginosa PAO1; [5]): 0.5 mg/L and 1 mg/L
- Fold-potentiation of antibiotic (P. aeruginosa PAO1; at 4 μg/mL GCol): 1
- Fold-potentiation of antibiotic (P. aeruginosa PAO1; at 4 μg/mL GPMB): 1
- MIC (P. aeruginosa PA 108590): 1 mg/L (≈ 0.855 µM)
- MIC (P. aeruginosa PA 86052): 1 mg/L (≈ 0.855 µM)
- MIC (P. aeruginosa PA 88949): 1 mg/L (≈ 0.855 µM)
- MIC (P. aeruginosa PA 107092): 0.5 mg/L (≈ 0.428 µM)
- MIC (P. aeruginosa PA 109084): 0.5 mg/L (≈ 0.428 µM)
- MIC (K. pneumoniae 113254): 256 mg/L (≈ 219 µM)
- MIC (K. pneumoniae 113250): 256 mg/L (≈ 219 µM)
- MIC (A. baumannii 92247): 4 mg/L (≈ 3.42 µM)
- MIC (A. baumannii 110193): 0.5 mg/L (≈ 0.428 µM)
- MIC (A. baumannii ATCC 17978 [1]): 0.5 mg/L (≈ 0.428 µM)
- MIC (A. baumannii AB031): 0.25 mg/L (≈ 0.214 µM)
- MIC (A. baumannii LAC-4): 0.125 mg/L (≈ 0.107 µM)
- MIC (A. baumannii AB027): 0.25 mg/L (≈ 0.214 µM)
- Absolute MIC of antibiotic at 2 μg/mL GCol (E. coli ATCC 25922): 0.125 mg/L
- Absolute MIC of antibiotic at 2 μg/mL GPMB (E. coli ATCC 25922): 0.0313 mg/L
- FIC index antibiotic + GCol (E. coli ATCC 25922): 1.016
- FIC index antibiotic + GPMB (E. coli ATCC 25922): 0.25
- MIC alone (E. coli ATCC 25922; [5]): 0.125 mg/L and 0.25 mg/L
- Fold-potentiation of antibiotic (E. coli ATCC 25922; at 2 μg/mL GCol): 1
- Fold-potentiation of antibiotic (E. coli ATCC 25922; at 2 μg/mL GPMB): 8
- MIC (E. cloacae 118564): >128 mg/L
- MIC (E. cloacae 121187): >128 mg/L
- Absolute MIC of antibiotic at 2 μg/mL GCol (A. baumannii ATCC 17978 [2]): 0.25 mg/L
- FIC index antibiotic + GPMB (A. baumannii ATCC 17978 [2]): 1.016
- MIC alone (A. baumannii ATCC 17978 [2]; [5]): 0.25 mg/L
- Fold-potentiation of antibiotic (A. baumannii ATCC 17978 [2]; at 2 μg/mL GCol): 1
- Fold-potentiation of antibiotic (A. baumannii ATCC 17978 [2]; at 2 μg/mL GPMB): 1
- MIC (P. aeruginosa 114228): 4 mg/L (≈ 3.42 µM)
- MIC [3]: 1 mg/L (≈ 0.855 µM)
- MIC [4]: 2 mg/L (≈ 1.71 µM)
- MIC (P. aeruginosa 101243): 1024 mg/L (≈ 876 µM)
- MIC (P. aeruginosa P259-96918): 0.5 mg/L (≈ 0.428 µM)
- MIC (E. coli 94393): 4 mg/L (≈ 3.42 µM)
- MIC (E. coli 94474): 16 mg/L (≈ 13.7 µM)
- MIC (E. coli 107115): 0.125 mg/L (≈ 0.107 µM)
